Test results from patent publication EP0613890A1, “Novel triazole compound, process for preparing the same and antifungal agent containing the same” (NIHON NOHYAKU CO., LTD., priority 1993, dated 1994).

Columns and labels:
[1] = tested on: Candida albicans IFO 1270; assay: Growth inhibition of Candida albicans in Sabouraud's glucose broth (Test Example 1); assay type: cell-based; settings: Candida albicans IFO 1270, Sabouraud's glucose broth
Protocol: To 9.8 mℓ of Sabouraud's glucose broth, 0.1 mℓ of cell suspension of Candida albicans IFO 1270 (1.0 x 10⁷ cells/mℓ) and 0.1 mℓ of test compound solution (1000 or 10 µg/mℓ) was added. The growth inhibition ratio (%) was determined. For comparison, cis-1-acetyl-4-[4-[[2-(2,4-dichrolophenyl)-2-(imidazol-1-ylmethyl)-1,3-dioxolan-4-yl]methoxy]phenyl]piperazine (Ketoconazole) was used as a reference compound (hereinafter referred to as compound A).

[2] = tested on: Candida albicans IFO 1270; assay: Survival of mice intravenously inoculated with Candida albicans, oral treatment (Test Example 2); assay type: in vivo; settings: male ddy mice, i.v. Candida albicans IFO 1270 (1 x 10⁸ cells/kg); 10 mg/kg orally once a day for three days; 10th day from inoculation
Protocol: Six-week-old male ddy mice were used as test animals (10 animals per control group; 5 animals per test group). Each animal was intravenously inoculated with Candida albicans IFO 1270 (1 x 10⁸ cells/kg) which has been subcultured on Sabouraud's glucose agar at 37 °C for 24 hours.
After the inoculation, each test compound was orally administered at a dosage of 10 mg/kg to the animal once a day for consecutive three days.
On the 10th day from the inoculation, the survival rate was monitored.

SMILES	Growth Inhibition (%) ([1]; 0.1 µg/mℓ)	Growth Inhibition (%) ([1]; 10 µg/mℓ)	Rate of Survival (%) [2] [%]
C/C(=C\c1ccc(C(=O)N2CCOCC2)cc1)C(O)(Cn1cncn1)c1ccc(F)cc1F (racemic) [Compound No. 3]	0	76	40
C/C(=C\c1ccc(C#N)cc1)C(O)(Cn1cncn1)c1ccc(F)cc1F (racemic) [Compound No. 5, 2-(2,4-Difluorophenyl)-2-[1-methyl-2(4-cyanophenyl)ethenyl]-1-triazolyl-2-ethanol]	72	96	100
C/C(=C\c1ccc(OC(F)(F)F)cc1)C(O)(Cn1cncn1)c1ccc(F)cc1F (racemic) [Compound No. 6, 2-(2,4-Difluorophenyl)-2-[1-methyl-2-(4-trifluoromethoxyphenyl)ethenyl]-1-triazolyl-2-ethanol]	63	86	100
C/C(=C\c1ccc(CO)cc1)C(O)(Cn1cncn1)c1ccc(F)cc1F (racemic) [compound 4]	8	65	40
C/C(=C\c1ccc(OCC(F)(F)C(F)F)cc1)C(O)(Cn1cncn1)c1ccc(F)cc1F (racemic) [compound 7]	60	86	100
C/C(=C\c1ccccn1)C(O)(Cn1cncn1)c1ccc(F)cc1F (racemic) [compound 9]	72	84	20
C/C(=C\c1cccs1)C(O)(Cn1cncn1)c1ccc(F)cc1F (racemic) [compound 10]	13	62	40
C/C(=C\c1ccc(C(=O)NNC=O)cc1)C(O)(Cn1cncn1)c1ccc(F)cc1F (racemic) [compound 15]	3	55	60
C/C(=C\c1ccc(-c2nc[nH]n2)cc1)C(O)(Cn1cncn1)c1ccc(F)cc1F (racemic) [compound 23]	8	67	
C/C(=C\c1ccc(SC(C)(C)C)cc1)C(O)(Cn1cncn1)c1ccc(F)cc1F (racemic) [compound 26]	48	67	
C/C(=C\Sc1ccc(F)cc1)C(O)(Cn1cncn1)c1ccc(F)cc1 (racemic) [compound 30]	11	83	40
C/C(=C\C#Cc1ccc(F)cc1)C(O)(Cn1cncn1)c1ccc(F)cc1F (racemic) [compound 36]	71	78	100
C/C(=C\C=C\c1ccc(C(F)(F)F)cc1)C(O)(Cn1cncn1)c1ccc(F)cc1F (racemic) [compound 37]	50	78	100
CC(=O)N1CCN(c2ccc(OC[C@H]3CO[C@](Cn4ccnc4)(c4ccc(Cl)cc4Cl)O3)cc2)CC1 (relative stereo) [compound A, cis-1-acetyl-4-[4-[[2-(2,4-dichrolophenyl)-2-(imidazol-1-ylmethyl)-1,3-dioxolan-4-yl]methoxy]phenyl]piperazine, reference compound]	62	76	20
CC(=Cn1cncn1)C(O)(Cn1cncn1)c1ccc(F)cc1 (centres unmarked) [Compound No. 14]			100
